The test system of assay [1] is Aorta. The assay is described as follows: Vasorelaxant activity against norepinephrine-induced contraction in Wistar rat thoracic aorta at 10 uM. The format is functional. The arrangement: scale not given: the % may be the effect or the level left.
Assay [2] deals with Aorta. The assay is described as follows: Vasorelaxant activity against norepinephrine-induced contraction in Wistar rat thoracic aorta at 100 uM. The format is functional. Also on record: scale not given: the % may be the effect or the level left.

Molecules are shown by their SMILES.

Take `COC(=O)[C@@H]1C[C@]23C4=NC[C@@H](C)[C@]45CC[C@@]2(COC(C)=O)[C@H](CCC2=C3[C@@H]1CC2)[C@H]5O` [DAPHMANIDIN A]: in assay [1], the Activity turned out to be 37.5%.

As to `COC(=O)C1=C2CCC3=C2[C@@]2(C1)C1=NC[C@@H](C)[C@]14CC[C@@]2(COC(C)=O)[C@H](CC3)[C@H]4O` [DAPHMANIDIN E], in assay [2], the Activity is recorded as 34.9%. `COC(=O)C1=C2CC[C@]34CC[C@@H]5[C@@H](O)[C@@]67CC[C@]5(COC(C)=O)[C@](C1)(C6=NC[C@H]7C)[C@]23O4` [DAPHMANIDIN F] yielded an Activity in assay [1] of 45.8%.
